Measurements published in patent US10669271B2, “Heterocyclic compounds as immunomodulators” (Incyte Corporation, priority 2018, dated 2020).

How the values were obtained:
[1] = system: U2OS/PD-L1 cells and Jurkat-PD-1-SHP cells; test: Src homology region 2 domain-containing phosphatase (SHP) assay; assay type: cell-based; conditions: Homo sapiens; U2OS/PD-L1 cells with Jurkat-PD-1-SHP cells, 2 hours
Protocol: Example B. Src Homology Region 2 Domain-Containing Phosphatase (SHP) Assay
U2OS/PD-L1 cells (DiscoveRx Corporation) were maintained in McCoy's 5A medium with addition of 10% FBS, 0.25 μg/ml Puromycin. After removing the culture media, the cell medium was replaced with assay medium (RPMI1640 medium with 1% FBS). The U2OS/PD-L1 cells were then added in 384-well black clear bottom assay plate (CELLCOAT® Tissue Culture Plates, Greiner Bio-One) at 5000 cells per well in 20 μL assay medium. Test compounds were prepared by serial dilution in DMSO and 125 nL compound were first transferred to the 384 REMP plate well (Thermofisher) by ECHO liquid handler (Labcyte) followed with addition of 27.5 μL assay medium. 5 μL/well compounds in the assay medium were transferred to the cell plate with 0.05% DMSO in the final assay at 0.5 μM. Jurkat-PD-1-SHP cells (DiscoveRx Corporation) were cultured in RPMI1640 medium supplemented with 10% FBS, 250 μg/ml Hygromycin B, 500 μg/ml G418. After the replacement of culture media with assay medium, 5,000 Jurkat-PD-1-SHP cells in 20 μL were dispensed into each well. The assay plate was incubated at 37° C., 5% CO2 for 2 hours before 2.5 μL PathHunter reagent 1 (DiscoveRx Corporation) were added to each well. The assay plate was shaken for 1 min at 350 rpm in the dark followed with addition of 10 μL PathHunter reagent 2 (DiscoveRx Corporation). Chemiluminescent signal was recorded with TopCount reader (Perkin Elmer) after incubation at room temperature for 1 hour. Wells with DMSO were served as the positive controls and wells containing no cells were used as negative controls. IC50 determination was performed by fitting the curve of percentage of control activity versus the log of the compound concentration using the GraphPad Prism 6.0 software.

[2] = system: PD-L1 aAPC/CHO-K1 cells and Jurkat-PD-1-NFAT effector cells; test: Nuclear factor of activated T-cells (NFAT) assay; assay type: cell-based; conditions: Cricetulus griseus; PD-L1 aAPC/CHO-K1 cells with Jurkat-PD-1-NFAT effector cells, 24 hours
Protocol: Example C. Nuclear Factor of Activated T-Cells (NFAT) Assay
PD-L1 aAPC/CHO-Klcells (Promega) were maintained in F-12 medium with addition of 10% FBS, 200 μg/ml Hygromycin B, 250 μg/ml Geneticin (G418). Jurkat-PD-1-NFAT effector cells (Promega) were cultured in RPMI 1640 medium supplemented with 10% FBS, 100 μg/ml Hygromycin B, 500 μg/ml G418. The culture media of PD-L1 aAPC/CHO-K1 cells were first replaced with assay medium (RPMI1640 medium with 1% FBS). The PD-L1 aAPC/CHO-K1 cells were then added in a white 384-well white clear bottom assay plate (CELLCOAT® Tissue Culture Plates, Greiner Bio-One) at 8000 per well in 10 μL assay medium. Test compounds were prepared by serial dilution in DMSO and 0.8 μL test compounds in DMSO were first transferred to the 384 REMP plate well (Thermofisher) by PlateMate Plus (Thermofisher) followed with addition of 50 μL plating medium. 5 μL compounds in the assay medium were transferred to the cells with 0.4% DMSO in the final assay at 2 μM. After removing the culture media, 10,000 Jurkat-PD-1-NFAT effector cells in 5 μL assay medium was dispensed into each well. The assay plate was incubated at 37° C., 5% CO2 for 24 hours. After the assay plate was equilibrated to room temp for 15 minutes, 20 µL/well of Bio-Glo™ reagent (Promega) were added. After 8 minutes incubation at room temperature, luminescence was read at with Pherastar microplate reader (BMG Labtech). The fold of induction (FOI) was calculated based on the ratio of luminescence normalized to the DMSO wells within each assay plate. The maximum percentage of induction was reported based on the ratio between the highest FOI of each compound and the maximum FOI of control compound within each assay plate. Wells with DMSO were served as the negative controls and wells containing control compound with the highest FOI were used as positive controls. EC50 determination was performed by fitting the curve of percent control activity versus the log of the compound concentration using the GraphPad Prism 6.0 software.

PD-L1 = PD-L1 (Homo sapiens (Human), UniProt Q9NZQ7); test: PD-L1 whole blood internalization assay; assay type: cell-based; conditions: 1 ng/ml human interferon γ, PD-L1 expression on CD14+ cells, read-out: Whole Blood (24 HR) IC50
PD-L1, sequence (Q9NZQ7 19-290): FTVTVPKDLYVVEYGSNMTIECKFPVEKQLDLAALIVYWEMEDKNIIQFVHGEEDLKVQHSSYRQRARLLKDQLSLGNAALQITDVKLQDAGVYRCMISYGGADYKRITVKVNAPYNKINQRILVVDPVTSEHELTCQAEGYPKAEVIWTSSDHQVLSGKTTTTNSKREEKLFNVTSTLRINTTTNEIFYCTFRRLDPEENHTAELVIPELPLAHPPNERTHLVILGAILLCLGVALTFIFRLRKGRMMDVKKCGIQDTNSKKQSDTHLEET
Protocol: Example D. PD-L1 Whole Blood Internalization Assay
To determine PD-L1 internalization in human whole blood, normal human blood (Biological Specialty Corp, Colmar. Pa.) was incubated in the presence or absence of a concentration range of test compounds and 1 ng/ml human interferon γ (R&D Systems Inc. Minn. […] Blood was then stained with PD-L1 (MIH1, eBioscience; or BD Biosciences San Jose, Calif.), CD14 (Life Technologies, Carlsbad, Calif.) for 30 minutes in the dark at room temperature. Whole Blood/red cells were lysed/fixed (lysis buffer BD Biosciences) for 5 minutes at 37° C. in the dark and then centrifuged at 1600 RPM for 5 minutes. Cells were resuspended in Stain Buffer (BD Bioscience, San Jose, Calif.) and transferred into 96 well round bottom plates (Corning). Cells were gated on CD14+(BD Biosciences) and PD-L1 expression determined by mean fluorescence intensity (MFI) (BD LSRFortessa™ X-20). IC50 determination was performed by fitting the curve of compound percent inhibition versus the log of the compound concentration using the GraphPad Prism 7.0 software.

PD-1/PD-L1 = PD-1/PD-L1 (Homo sapiens (Human), UniProt Q9NZQ7); test: Homogeneous Time-Resolved Fluorescence (HTRF) PD-1/PD-L1 binding assay; conditions: recombinant human PD-1 and PD-L1, 25° C., pH 7.4
PD-1/PD-L1, sequence (Q9NZQ7 19-238): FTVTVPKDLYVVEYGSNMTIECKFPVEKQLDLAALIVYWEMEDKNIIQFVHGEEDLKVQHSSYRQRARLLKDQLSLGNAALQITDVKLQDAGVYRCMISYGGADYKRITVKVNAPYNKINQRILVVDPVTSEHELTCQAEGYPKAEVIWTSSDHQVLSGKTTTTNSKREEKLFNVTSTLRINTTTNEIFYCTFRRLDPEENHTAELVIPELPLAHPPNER
Protocol: Example A. Homogeneous Time-Resolved Fluorescence (HTRF) PD-1/PD-L1 Binding Assay
The assays were conducted in a standard black 384-well polystyrene plate with a final volume of 20 μL. Inhibitors were first serially diluted in DMSO and then added to the plate wells before the addition of other reaction components. The final concentration of DMSO in the assay was 1%. The assays were carried out at 25° C. in the PBS buffer (pH 7.4) with 0.05% Tween-20 and 0.1% BSA. Recombinant human PD-L1 protein (19-238) with a His-tag at the C-terminus was purchased from AcroBiosystems (PD1-H5229). Recombinant human PD-1 protein (25-167) with Fc tag at the C-terminus was also purchased from AcroBiosystems (PD1-H5257). PD-L1 and PD-1 proteins were diluted in the assay buffer and 10 μL was added to the plate well. Plates were centrifuged and proteins were preincubated with inhibitors for 40 minutes. The incubation was followed by the addition of 10 μL of HTRF detection buffer supplemented with Europium cryptate-labeled anti-human IgG (PerkinElmer-AD0212) specific for Fc and anti-His antibody conjugated to SureLight®-Allophycocyanin (APC, PerkinElmer-AD0059H). After centrifugation, the plate was incubated at 25° C. for 60 min. before reading on a PHERAstar FS plate reader (665 nm/620 nm ratio). Final concentrations in the assay were—3 nM PD1,10 nM PD-L1, 1 nM europium anti-human IgG and 20 nM anti-His-Allophycocyanin. IC50 determination was performed by fitting the curve of percent control activity versus the log of the inhibitor concentration using the GraphPad Prism 5.0 software.

| IC50 [1] [µM] | IC50 (PD-L1) [µM] | IC50 (PD-1/PD-L1) [µM] | SMILES | EC50 [2] [µM] |
| --- | --- | --- | --- | --- |
| ≤ 0.01 | 0.01 to 0.1 | ≤ 0.01 | Cc1c(Nc2nc(C(F)F)nc3cc(CN4CC[C@@H](O)C4)cnc23)cccc1-c1cccc(-c2nc3cc(CN4CC[C@@](C)(C(=O)O)C4)cc(C#N)c3o2)c1C [Example 18, (R)-1-((7-cyano-2-(3′-(2-(difluoromethyl)-7-(((R)-3-hydroxypyrrolidin-1-yl)methyl)pyrido[3,2-d]pyrimidin-4-ylamino)-2,2′-dimethylbiphenyl-3-yl)benzo[d]oxazol-5-yl)methyl)-3-methylpyrrolidine-3-carboxylic Acid] | 0.01 to 0.1 |
| ≤ 0.01 | 0.01 to 0.1 | – | Cc1c(Nc2nc(C(F)(F)F)nc3cc(CN4CC[C@@H](O)C4)cnc23)cccc1-c1cccc(-c2nc3cc(CN4CCC(C(=O)O)CC4)cc(C#N)c3o2)c1C [Example 19, (R)-1-((7-cyano-2-(3′-(7-((3-hydroxypyrrolidin-1-yl)methyl)-2-(trifluoromethyl)pyrido[3,2-d]pyrimidin-4-ylamino)-2,2′-dimethylbiphenyl-3-yl)benzo[d]oxazol-5-yl)methyl)piperidine-4-carboxylic Acid] | 0.01 to 0.1 |
| ≤ 0.01 | 0.01 to 0.1 | ≤ 0.01 | Cc1nc(Nc2cccc(-c3cccc(-c4nc5cc(CN6CC[C@@](C)(C(=O)O)C6)cc(C#N)c5o4)c3C)c2C)c2ncc(CN3CC[C@@H](O)C3)cc2n1 [Example 11, (R)-1-((7-cyano-2-(3′-(7-(((R)-3-hydroxypyrrolidin-1-yl)methyl)-2-methylpyrido[3,2-d]pyrimidin-4-ylamino)-2,2′-dimethylbiphenyl-3-yl)benzo[d]oxazol-5-yl)methyl)-3-methylpyrrolidine-3-carboxylic Acid] | 0.01 to 0.1 |
| ≤ 0.01 | 0.01 to 0.1 | ≤ 0.01 | Cc1c(Nc2nc(C(F)F)nc3cc(CN4CC[C@@H](O)C4)cnc23)cccc1-c1cccc(-c2nc3cc(CN4CC[C@@H](C(=O)O)C4)cc(C#N)c3o2)c1C [Example 17, (R)-1-((7-cyano-2-(3′-(2-(difluoromethyl)-7-(((R)-3-hydroxypyrrolidin-1-yl)methyl)pyrido[3,2-d]pyrimidin-4-ylamino)-2,2′-dimethylbiphenyl-3-yl)benzo[d]oxazol-5-yl)methyl)pyrrolidine-3-carboxylic Acid] | 0.01 to 0.1 |
| ≤ 0.01 | – | ≤ 0.01 | Cc1nc(Nc2cccc(-c3cccc(-c4nc5cc(CN6CC[C@@H](C(=O)O)C6)cc(C#N)c5o4)c3C)c2C)c2ncc(CNC[C@H](C)O)cc2n1 [Example 10, (R)-1-((7-cyano-2-(3′-(7-(((S)-2-hydroxypropylamino)methyl)-2-methylpyrido[3,2-d]pyrimidin-4-ylamino)-2,2′-dimethylbiphenyl-3-yl)benzo[d]oxazol-5-yl)methyl)pyrrolidine-3-carboxylic Acid] | 0.01 to 0.1 |
| ≤ 0.01 | – | ≤ 0.01 | Cc1nc(Nc2cccc(-c3cccc(-c4nc5cc(CN6CC[C@@H](C(=O)O)C6)cc(C#N)c5o4)c3C)c2C)c2ncc(CN[C@@H](C)CO)cc2n1 [Example 9, (R)-1-((7-cyano-2-(3′-(7-(((S)-1-hydroxypropan-2-ylamino)methyl)-2-methylpyrido[3,2-d]pyrimidin-4-ylamino)-2,2′-dimethylbiphenyl-3-yl)benzo[d]oxazol-5-yl)methyl)pyrrolidine-3-carboxylic Acid] | 0.01 to 0.1 |
| ≤ 0.01 | 0.01 to 0.1 | – | Cc1cc2cc(CN3CC[C@@H](O)C3)cnc2c(Nc2cccc(-c3cccc(-c4nc5cc(CN6CC[C@@H](C(=O)O)C6)cc(C#N)c5o4)c3C)c2C)n1 [Example 33, (R)-1-((7-cyano-2-(3′-(3-(((R)-3-hydroxypyrrolidin-1-yl)methyl)-6-methyl-1,7-naphthyridin-8-ylamino)-2,2′-dimethylbiphenyl-3-yl)benzo[d]oxazol-5-yl)methyl)pyrrolidine-3-carboxylic Acid] | ≤ 0.01 |
| ≤ 0.01 | 0.01 to 0.1 | – | Cc1c(Nc2nc(C(F)(F)F)nc3cc(CN4CC[C@@H](O)C4)cnc23)cccc1-c1cccc(-c2nc3cc(CN4CC[C@@](C)(C(=O)O)C4)cc(C#N)c3o2)c1C [Example 21, (R)-1-((7-cyano-2-(3′-(7-(((R)-3-hydroxypyrrolidin-1-yl)methyl)-2-(trifluoromethyl)pyrido[3,2-d]pyrimidin-4-ylamino)-2,2′-dimethylbiphenyl-3-yl)benzo[d]oxazol-5-yl)methyl)-3-methylpyrrolidine-3-carboxylic Acid] | 0.01 to 0.1 |
| ≤ 0.01 | – | ≤ 0.01 | Cc1nc(Nc2cccc(-c3cccc(-c4nc5cc(CN6CC[C@@](C)(C(=O)O)C6)cc(C#N)c5o4)c3C)c2C)c2ncc(CNC[C@H](C)O)cc2n1 [Example 15, (R)-1-((7-cyano-2-(3′-(7-(((S)-2-hydroxypropylamino)methyl)-2-methylpyrido[3,2-d]pyrimidin-4-ylamino)-2,2′-dimethylbiphenyl-3-yl)benzo[d]oxazol-5-yl)methyl)-3-methylpyrrolidine-3-carboxylic Acid] | 0.01 to 0.1 |
